Reference: patent US20230320995A1, “IONIZABLE CATIONIC LIPIDS AND LIPID NANOPARTICLES” (CAPSTAN THERAPEUTICS, INC., priority 2022, published 2023)
Read-outs that look alike come from different tables or passages of the source.

Tests used:
[1] = apparent pKa of ionizable lipid in lipid nanoparticle, TNS assay; assay type: physicochemical; details: for ΔpKa: difference of calculated and measured pKa; for pKa: TNS assay
Method: c Log D and c-pKa were calculated as noted above. The measured pKa of a lipid was determined as formulated in a lipid nanoparticle using the TNS assay as described in the following Example.
The apparent pKa of ionizable lipid in the lipid nanoparticle was determined using 6-(p-toluidino)-2-naphthalenesulfonic acid sodium salt (TNS salt, Toronto Research Chemicals, Toronto, ON, Canada). Lipid nanoparticles were diluted in 1×Dulbecco's PBS to a concentration of 1 mM total lipids. TNS salt was prepared as a 1 mg/mL stock solution in DMSO and then further diluted using distilled water to a working solution of 60 μg/mL ([…]). Diluted lipid nanoparticle samples were further diluted to 90 μM total lipids in 165 μL of buffered solution containing 10 mM HEPES, 10 mM MES, 10 mM ammonium acetate, 130 mM NaCl, and final TNS concentration of 1.33 μg/mL (4 μM) with the pH ranging from 3.5 to 12.2. Following pipette mixing and incubation at room temperature in the dark for 15 min, fluorescence intensity was measured at room temperature in a BioTek Synergy H1 plate reader using excitation and emission wavelengths of 321 and 445 nm, respectively. The fluorescence signal was blank subtracted and plotted as a function of the pH, then analyzed using a nonlinear (Boltzmann) regression analysis with the apparent pKa determined as the pH giving rise to half maximal fluorescence intensity as calculated by the Henderson-Hasselbalch equation.

[2] = ex vivo stability in mouse plasma; assay type: in vitro ADME; details: CD-1 mouse plasma, 37° C., 1 μM lipid
Method: To determine the stability of the disclosed lipids in mouse plasma lipid stock solution was prepared by dissolution of the lipid in isopropanol at the concentration of 5 mg/mL. A requisite volume of the lipid-isopropanol solution was then diluted to 100 μM concentration at a total volume of 10.0 mL with 50:50 (v/v) ethanol/water. Ten microliters of this 100 μM solution was spiked into 10.0 mL of mouse plasma (BioIVT, Lot MSE394920, CD-1 mouse, anticoagulant: sodium heparin, not filtered) that was prewarmed to 37° C. and stirred at 50 rpm with a magnetic stir bar. The starting concentration of lipids in plasma was thus 1 μM. Aliquots (50 μL) were taken after 0, 15, 30, 45, 60, and 120 minutes, transferred to microcentrifuge tubes and quenched with three volumes (150 μL) of ice cold acetonitrile/methanol (4:1). Positive control incubations utilized the same plasma, with Benfluorex (1 μM) as the substrate with Labetalol (1.0 μgl) as the in situ disappearance. The quenched solutions were vortexed, centrifuged for 5 minutes at 13,000 rpm, and supernatant (100 μL) transferred to a 96-well plate and diluted with water (200 μL, 0.1% FA). After filtration through a 0.45 μm 96-well filtering plate, the filtrates were analyzed by LC-MS (Waters AQUITY I-class UPLC system, ThermoScientific Vanquish UPLC system consisting of a binary pump, autosampler, and column compartment, Waters Xevo G2-XS QT of mass spectrometer; Phenomenex F5, 1.7 μm, 2.1×50 mm column). Mobile phase A was 0.1% formic acid in water, and mobile phase B was 0.1% formic acid in acetonitrile. The flow rate was 0.6 mL/min. Elution gradient was as follows: time, 0.5 min: 20% B; 0.5-2 min: 20-100% B; 2-4.8 min: 100% B; 4.8-5.45 min: 100-20% B. Mass spectrometry was in positive scanning mode from 600-1100 m/z. The peak of the molecular ion of the lipids was integrated in extracted ion chromatography (XIC) using Xcalibur software (Thermo Fisher). The relative peak area compared to T=0, after normalization by the peak area of the internal standard, was used as the percentage of the lipid remaining at each time point. T1/2 values were calculated using the first-order decay model.

[3] = physical-chemical properties of LNP encapsulating mCherry mRNA; assay type: physicochemical; details: for Encapapsulation Efficiency / PDI (polydispersity index): LNP 50:10:38.5:1.5, mCherry mRNA; for Encapapsulation Efficiency / Hydrodynamic diameter: N/P 6; for Hydrodynamic diameter: LNP: ionizable lipid/DSPC/cholesterol/DMG-PEG2000 50:10:38.5:1.5, mCherry mRNA, pH 7.4 Tris, 25° C.; for Hydrodynamic diameter / PDI (polydispersity index): DLS
Excerpt: The mRNA was encapsulated in LNP using a self-assembly process in which an aqueous solution of mRNA at pH=3.5 is rapidly mixed with a solution of lipids dissolved in ethanol, then followed by stepwise phosphate and Tris buffer dilution and tangential flow filtration (TFF) purification. LNP composition in this study was: ionizable cationic lipid/distearoylphosphatidylcholine/cholesterol/DMG-PEG2000 (50:10:38.5:1.5 mol/mol) and were encapsulated at an N/P ratio (the ratio of positively-chargeable lipid amine (N=nitrogen) groups to negatively-charged nucleic acid phosphate (P) groups) at 6. LNPs were frozen at −80° C. […] The diameter of the nanoparticles was measured by dynamic light scattering using a Zetasizer Nano ZS (Malvern Instruments Ltd., Malvern, UK) instrument. Size measurement was carried out in pH 7.4 Tris buffer at 25° C. in relevant disposable capillary cells. A non-invasive back scatter system (NIBS) with a scattering angle of 173° was used for size measurements.

[4] = physical-chemical properties of CD5-targeted tLNP encapsulating mCherry mRNA; assay type: physicochemical; details: for Hydrodynamic diameter: anti-CD5 tLNP: ionizable lipid/DSPC/cholesterol/DMG-PEG 2000/DSPE-PEG2000-Maleimide 50:10:38.5:1.4:0.1; for Hydrodynamic diameter / PDI (polydispersity index): DLS; for PDI (polydispersity index) / Encapsulation Efficiency: anti-CD5 tLNP; for Encapsulation Efficiency: RiboGreen assay
Excerpt: CleanCap® mCherry 5-methoxyuridine (5moU) mRNA (L-7203) was purchased from TriLink. mRNA was encapsulated in LNP using a self-assembly process in which an aqueous solution of mRNA at pH=3.5 is rapidly mixed with a solution of lipids dissolved in ethanol, then followed by stepwise phosphate and Tris buffer dilution and TFF purification. LNP composition in this study was: ionizable cationic lipid/distearoylphosphatidylcholine/cholesterol/DMG-PEG 2000/distearoylphosphatidyl ethanolamine(DSPE)-PEG2000-Maleimide (50:10:38.5:1.4:0.1 mol/mol) and were encapsulated at an N/P ratio (the ratio of positively-chargeable […] amine (N=nitrogen) groups to negatively-charged nucleic acid phosphate (P) groups) at 6. The hydrodynamic diameter of the nanoparticles was measured by dynamic light scattering using a Zetasizer Nano ZS (Malvern Instruments Ltd., Malvern, UK) instrument.
Next, an anti-CD5 mAb was conjugated to the above LNP to generate tLNP. Purified rat anti-mouse CD5 antibody, clone 53-7.3 (BioLegend), was coupled to LNP via N-succinimidyl S-acetylthioacetate (SATA)-maleimide conjugation chemistry. Briefly, LNPs with DSPE-PEG(2000)-maleimide incorporated were formulated and stored at 4° C. on the day of conjugation. The antibody was modified with SATA (Sigma-Aldrich) to introduce sulfhydryl groups at accessible lysine residues allowing conjugation to maleimide. SATA was deprotected using 0.5 M hydroxylamine followed by removal of the unreacted components by G-25 Sephadex Quick Spin Protein columns (Roche Applied Science, Indianapolis, IN). The reactive sulfhydryl group on the antibody was then conjugated to maleimide moieties on the LNPs using thioether conjugation chemistry. Purification was performed using Sepharose CL-4B gel filtration columns (Sigma-Aldrich). tLNPs (LNPs conjugated with a targeting antibody) were frozen at −80° C. Others have conjugated antibody to free functionalized PEG-lipid and then incorporated the conjugated lipid into pre-formed LNP.
mRNA content was determined using a Quant-iT™ RiboGreen RNA assay kit (Invitrogen™). Encapsulation efficiency was calculated by determining the unencapsulated mRNA content by measuring the fluorescence intensity (Fi) upon the addition of RiboGreen reagent to the LNP and comparing this value to the total fluorescence intensity (Ft) of the RNA content that is obtained upon lysis of the LNPs by 1% Triton X-100, where % encapsulation=(Ft−Fi)/Ft x 100).
The particle size (hydrodynamic diameter) and polydispersity index of the targeted lipid nanoparticles were determined using dynamic light scattering (DLS) on a Malvern Zetasizer Nano ZS (Malvern Instruments, Worcestershire, UK). Size measurement was carried out in pH 7.4 Tris buffer at 25° C. in relevant disposable capillary cells. A non-invasive back scatter system (NIBS) with a scattering angle of 173° was used for size measurements.

[5] = ionizable lipid in tLNP, read-out: Measured pKa
[6] = measured, lipid formulated in a lipid nanoparticle, read-out: pKa

CCCCCCCCC(=O)OCC(COC(=O)CCCCCCCC)CC(=O)OCCN(CCOC(=O)CC(COC(=O)CCCCCCCC)COC(=O)CCCCCCCC)C(=O)NCCN(C)C [Compound A-13]
ΔpKa [1]: 0.80 | pKa [1, 5]: 7.51 | pKa [1, 6]: 7.51 | ex vivo Mouse Plasm Stability % Remaining at 2 Hours [2]: 64% | Encapapsulation Efficiency [3]: 99% | Hydrodynamic diameter [3]: 101 nm | Hydrodynamic diameter [4]: 100 nm | PDI (polydispersity index) [4]: 0.10 | Encapsulation Efficiency [4]: 99%

CCCCCCCCC(=O)OCC(COC(=O)CCCCCCCC)CC(=O)OCCN(CCOC(=O)CC(COC(=O)CCCCCCCC)COC(=O)CCCCCCCC)C(=O)N(C)CCCN(C)C [Compound A-15]
ΔpKa [1]: 1.18 | pKa [1, 5]: 8.37 | pKa [1, 6]: 8.37 | ex vivo Mouse Plasm Stability % Remaining at 2 Hours [2]: 69% | Encapapsulation Efficiency [3]: 99% | PDI (polydispersity index) [3]: 0.07 | Hydrodynamic diameter [3]: 97 nm | Hydrodynamic diameter [4]: 136 nm | PDI (polydispersity index) [4]: 0.15 | Encapsulation Efficiency [4]: 98%

CCCCCCCCC(=O)OCC(COC(=O)CCCCCCCC)CC(=O)OCCN(CCOC(=O)CC(COC(=O)CCCCCCCC)COC(=O)CCCCCCCC)C(=O)OCCCN(C)C [Compound A-12]
ΔpKa [1]: 1.91 | pKa [1, 5]: 7.35 | pKa [1, 6]: 7.35 | ex vivo Mouse Plasm Stability % Remaining at 2 Hours [2]: 85% | Encapapsulation Efficiency [3]: 91% | PDI (polydispersity index) [3]: 0.04 | Hydrodynamic diameter [3]: 104 nm | Hydrodynamic diameter [4]: 98 nm | PDI (polydispersity index) [4]: 0.07 | Encapsulation Efficiency [4]: 92%

CCCCCCCCC(=O)OCC(COC(=O)CCCCCCCC)CC(=O)OCCN(CCOC(=O)CC(COC(=O)CCCCCCCC)COC(=O)CCCCCCCC)C(=O)N(C)CCN(C)C [Compound A-14]
ΔpKa [1]: 0.91 | pKa [1, 5]: 7.46 | pKa [1, 6]: 7.46 | ex vivo Mouse Plasm Stability % Remaining at 2 Hours [2]: 61% | Encapapsulation Efficiency [3]: 91% | PDI (polydispersity index) [3]: 0.03 | Hydrodynamic diameter [3]: 127 nm | Hydrodynamic diameter [4]: 100 nm | PDI (polydispersity index) [4]: 0.05 | Encapsulation Efficiency [4]: 95%
